The source of these data is US11208403B2, “Pyridone derivatives having tetrahydropyranylmethyl groups” (DAIICHI SANKYO COMPANY, LIMITED, priority 2014, dated 2021).

Counter-ions that a name gives are not always drawn. Like-named read-outs stand apart in the source and are kept apart here. A value given as a limit tells only on which side of the number the result lay.

Data set [1] addresses T1, human MER (intracellular domain, amino acids 528-999, GST fusion) (Homo sapiens (Human), UniProt Q12866). Particulars: read-out: Mer kinase IC50; cell-free, ATP concentration of 1 mM.
Another data set deals with NIH-3T3-Axl #7. The data set can be described thus: Antitumor test, NIH-3T3-Axl #7 tumors in NOG mice (Test Example 5). It counts as in vivo, mouse. As to conditions: NIH-3T3-Axl #7 in female NOG mice, 5 continuous doses. From the text:
(Test Example 5: Antitumor Test)
NIH-3T3-Axl #7 (cells prepared by the transfection of NIH3T3 cells with pLXSN retrovirus having an insert of full-length Axl cDNA) was block-transplanted into female NOG mice.

Data set [2] in a line: Ophthalmic histopathological examination after long-term administration (Test Example 4). The data set is classed as in vivo, mouse. Particulars: female NOG mice (n=8), 100 or 200 mg/kg. The source says:
Preparation of dosing Solution:
4. Administration Method:
Four continuous doses, 1 drug holiday, 5 continuous doses, 2 drug holidays, 5 continuous doses, 2 drug holidays, 5 continuous doses, 2 drug holidays, and 4 continuous doses.
5. Pathological Examination
On the day following the termination date of the administration period, the mice were euthanized by blood letting under isoflurane anesthesia. Then, their eyeballs were collected, fixed in Davidson's solutions, then embedded in paraffin, and stained with hematoxylin eosin to prepare preparations, which were then histopathologically examined.

For data set [3], the system named is HCC827 lung cancer cells. The data set can be described thus: In vivo effect of combined use with erlotinib-2, erlotinib-resistant HCC827 tumors (Test Example 8). The arrangement: species or system mouse.
The test system of data set [4] is HCC827 lung cancer cells. Put plainly: In vivo effect of combined use with erlotinib, HCC827 subcutaneous tumors (Test Example 6). As to conditions: HCC827 in nude mice, 50 mg/kg bid in combination with 25 mg/kg erlotinib qd.
The target in data set [5] is T1, human MER (intracellular domain, amino acids 528-999, GST fusion). Put plainly: biochemical.

T1 sequence (Q12866 528-999): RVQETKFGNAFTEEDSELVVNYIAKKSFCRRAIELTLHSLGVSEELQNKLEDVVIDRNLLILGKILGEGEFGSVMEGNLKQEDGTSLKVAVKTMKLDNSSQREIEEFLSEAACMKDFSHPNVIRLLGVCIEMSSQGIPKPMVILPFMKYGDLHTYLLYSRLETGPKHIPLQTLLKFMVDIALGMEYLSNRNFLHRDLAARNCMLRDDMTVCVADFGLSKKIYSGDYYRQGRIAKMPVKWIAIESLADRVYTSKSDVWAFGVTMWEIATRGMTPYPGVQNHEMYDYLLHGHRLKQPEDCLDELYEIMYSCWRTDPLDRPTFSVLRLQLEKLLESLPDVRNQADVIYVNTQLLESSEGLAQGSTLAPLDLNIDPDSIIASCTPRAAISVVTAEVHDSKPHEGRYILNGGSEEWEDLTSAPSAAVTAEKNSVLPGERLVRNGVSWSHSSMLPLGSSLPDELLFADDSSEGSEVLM

On to `COc1cc(-c2cnc(N)c(-c3ccc(NC(=O)c4cn(CC5CCOCC5)cc(-c5ccc(C)cc5)c4=O)nn3)c2)ccc1OCCN1CCOCC1` [Example 110, N-[6-(2-Amino-5-{3-methoxy-4-[2-(morpholin-4-yl)ethoxy]phenyl}pyridin-3-yl)pyridazin-3-yl]-5-(4-methylphenyl)-4-oxo-1-(tetrahydro-2H-pyran-4-ylmethyl)-1,4-dihydropyridine-3-carboxamide], for which the IC50 (as a rule, the point on the concentration scale where inhibition reaches its midpoint) in data set [1] is over 4 µM.

Consider `COc1cc(-c2cnc(N)c(-c3ccc(NC(=O)c4cn(CC5CCOCC5)cc(-c5ccc(C)cc5)c4=O)cc3)c2)ccc1OC[C@H]1COCCO1.CS(=O)(=O)O` [Example 128], for which the antitumor effect entry is given as “almost completely inhibited tumor growth” in the data set with NIH-3T3-Axl #7 (3.1 mg/kg oral bid), “distinct tumor regression effect” in the data set with NIH-3T3-Axl #7 (12.5 mg/kg oral bid) and “distinct tumor regression effect” with NIH-3T3-Axl #7 (50 mg/kg oral bid). Moreover, the “histological change in the retina” value in data set [2] is “No histological change in the retinal”.

Regarding `Cc1ccc(-c2cn(CC3CCOCC3)cc(C(=O)Nc3ccc(-c4cc(-c5cnn(C6CCOCC6)c5)cnc4N)nn3)c2=O)cc1` [Example 109], in data set [1], the IC50 is over 4 µM.

Take `COc1cc(-c2cnc(N)c(-c3ccc(NC(=O)c4cn(CC5CCOCC5)cc(-c5ccc(C)s5)c4=O)nn3)c2)ccc1OC[C@H]1COCCO1` [Example 106]: in data set [1], the IC50 was over 4 µM.

Consider `Cc1ccc(-c2cn(CC3CCOCC3)cc(C(=O)Nc3ccc(-c4cc(-c5cnn(CC6CCOCC6)c5)cnc4N)nn3)c2=O)cc1` [Example 102], for which, in data set [1], the IC50 is over 4 µM.

In the case of `COc1ccc(-c2cnc(N)c(-c3ccc(NC(=O)c4cn(CC5CCOCC5)cc(-c5ccc(OC(F)(F)F)cc5)c4=O)cc3)c2)cc1OC` [Example 7], the IC50 in data set [1] was over 4 µM.

As to `COc1cc(-c2cnc(N)c(-c3ccc(NC(=O)c4cn(CC5CCOCC5)cc(-c5ccc(C)cn5)c4=O)cc3F)c2)ccc1OC[C@H]1COCCO1` [Compound B sulfate hydrate], in the data set with HCC827 lung cancer cells [3] (group 2: 50 mg/kg bid + 25 mg/kg erlotinib qd), the “growth inhibition of erlotinib-resistant tumor” value is listed as “distinct growth inhibitory effect of erlotinib was confirmed”. Moreover, in the data set on HCC827 lung cancer cells [3] (group 2: 50 mg/kg bid + 25 mg/kg erlotinib qd, 116 to 140 days after transplantation), the “estimated tumor volume of erlotinib-resistant tumor” value was “maintained even at 140 days after transplantation”. For the same compound, in the data set with HCC827 lung cancer cells [3] (group 3: 25 mg/kg bid + 25 mg/kg erlotinib qd), the “growth inhibition of erlotinib-resistant tumor” value is listed as “distinct growth inhibitory effect of erlotinib was confirmed”. Besides, in the data set with HCC827 lung cancer cells [4], the body weight change entry was “No significant weight loss” and the “tumor size relative to start of administration (estimated tumor volume)” value is on record as “did not reach that at the start of administration even at Day 107”.

Take `COc1ccc(-c2cnc(N)c(-c3ccc(NC(=O)c4cn(CC(F)(F)F)cc(-c5ccc(F)cc5)c4=O)cc3)c2)cc1OC` [Compound A, reference compound]: the antitumor effect result in the data set with NIH-3T3-Axl #7 (4.2 mg/kg oral bid) and with NIH-3T3-Axl #7 (25 mg/kg oral bid) was “distinct tumor regression effect” throughout.

Turning to `COc1cc(-c2cnc(N)c(-c3ccc(NC(=O)c4cn(CC5CCOCC5)cc(-c5ccc(C)cn5)c4=O)cc3F)c2)ccc1OC[C@H]1COCCO1` [Example 124], the “histological change in the retina” value in data set [2] was “No histological change in the retinal”.

With `COc1cc(-c2cnc(N)c(-c3ccc(NC(=O)c4cn(CC5(C#N)CCOCC5)cc(-c5ccc(F)cc5)c4=O)cc3)c2)ccc1OC[C@H]1COCCO1.CS(=O)(=O)O` [Example 129], the “histological change in the retina” value in data set [2] was “No histological change in the retinal”.

Consider `COc1cc(-c2cnc(N)c(-c3ccc(NC(=O)c4cn(CC5CCOCC5)cc(-c5ccc(C)cn5)c4=O)nn3)c2)ccc1OC[C@H]1COCCO1` [Example 105], for which the IC50 in data set [1] is over 4 µM.

`COc1ccc(-c2cnc(N)c(-c3ccc(NC(=O)c4cn(CC5CCOCC5)cc(-c5ccc(C)cn5)c4=O)nn3)c2)cc1OC` [Example 103]: in data set [1], the IC50 is over 4 µM.

`Cc1ccc(-c2cn(CC3CCOCC3)cc(C(=O)Nc3ccc(-c4cc(-c5cc(C)nc(C)c5)cnc4N)nc3)c2=O)cc1` [Example 89]: the IC50 in data set [1] was over 4 µM.

As to `COc1cc(-c2cnc(N)c(-c3ccc(NC(=O)c4cn(CC5CCOCC5)cc(-c5ccc(C)cc5)c4=O)cn3)c2)c(OC)nn1` [Example 96], the IC50 in data set [1] is over 4 µM.

On to `COc1ccc(-c2cnc(N)c(-c3cnc(NC(=O)c4cn(CC5CCOCC5)cc(-c5ccc(C)cc5)c4=O)cn3)c2)cc1OC` [Example 112, N-{5-[2-Amino-5-(3,4-dimethoxyphenyl)pyridin-3-yl]pyrazin-2-yl}-5-(4-methylphenyl)-4-oxo-1-(tetrahydro-2H-pyran-4-ylmethyl)-1,4-dihydropyridine-3-carboxamide], for which, in data set [5], the IC50 is over 4000 nM.

In turn, `COc1ccc(-c2cnc(N)c(-c3ccc(NC(=O)c4cn(CC5CCOCC5)cc(-c5ccc(C)cc5)c4=O)cc3)c2)cc1OC` [Example 2] returned an IC50 in data set [5] of 102 nM.

On to `Cc1ccc(-c2cn(CC3CCOCC3)cc(C(=O)Nc3ccc(-c4cc(-c5cnn(C[C@H]6COCCO6)c5)cnc4N)nn3)c2=O)cc1` [Example 108], for which, in data set [1], the IC50 was over 4 µM.
